Laboratory results published in US10689628B2, “Method of making variant LovD polypeptides” (THE REGENTS OF THE UNIVERSITY OF CALIFORNIA, priority 2009, dated 2020).

B1: GX27: LovD mutant with eight mutations: C40A, C60N, A86V, D12G, G275S, A190T, H161Y (printed 11161Y) and K26E (protein, UniProt Q9Y7D1 1-413, looked up, variant C40A C60N A86V D12G G275S A190T H161Y K26E)
Monacolin J acid …: MGSIIDAAAAAGPVVLMETAFRKAVESRQIPGAVIMARDASGNLNYTRCFGARTVRRDENNQLPPLQVDTPCRLASATKLLTTIMVLQCMERGLVDLDETVDRLLPDLSAMPVLEGFDDAGNARLRERRGKITLRHLLTHTSGLSYVFLHPLLREYMAQGYLQSAEKFGIQSRLAPPAVNDPGAEWIYGTNLDWAGKLVERATGLDLEQYLQENICAPLGITDMTFKLQQRPDMLARRADQTHRNSADGRLRYDDSVYFRADGEECFGGQGVFSSPGSYMKVLHSLLKRDGLLLQPQTVDLMFQPALEPRLEEQMNQHMDASPHINYGGPMPMVLRRSFGLGGIIALEDLDGENWRRKGSLTFGGGPNIVWQIDPKAGLCTLAFFQLEPWNDPVCRDLTRTFEHAIYAQYQQG

What was measured:
Neurospora crassa = assay: Agar diffusion growth inhibition of Neurospora crassa by statins
Description: N. crassa was grown on SDA slants for 10 days and spores were harvested with 1% Tween-80. 100 ml of molten SDA was seeded with 0.3-0.5×10^8 spores and poured into a 230×230 mm plate. Colonies from mutation library were cultured in 96 well plates containing 250 μl LB medium (with 35 mg/L kanamycin). The cells were grown at 37° C. to saturation and transferred to duplicated plates. Protein expression was induced with 0.1 mM IPTG at OD600 of 0.5 and the expression was performed at 25° C. for 16 h. 5 mM MJA and 10 mM DMB-SMMP were added to initiate the reaction. After a certain reaction time (45 mins to 4 hours depending on the activity of the parent), cells were removed with centrifugation (2,000 g, 4° C., 5 min). The amount of supernatant spotted on the SDA plate was typically 1-3 μl. The plates were incubated at 30° C. for 16˜18 hours.
N. crassa was grown on SDA slants for 10 days and spores were harvested with 1% Tween-80. 100 ml of molten SDA was seeded with 0.3-0.5×10^8 spores and poured into a 230×230 mm plate. Colonies from mutation library were cultured in 96 well plates containing 250 μl LB medium (with 35 mg/L kanamycin). The cells were grown at 37° C. to saturation and transferred to duplicated plates. Protein expression was induced with 0.1 mM IPTG at OD600 of 0.5 and the expression was performed at 25° C. for 16 h. 5 mM MJA and 10 mM DMB-SMMP were added to initiate the reaction. […]

LovD = biological target: T1, LovD (Aspergillus terreus, UniProt Q9Y7D1); assay: LovD transacylation of monacolin J with acyl-thioesters / acyl-CoAs (conversion by HPLC); type: biochemical; conditions: 10 μM LovD, 1 mM monacolin J, 4 mM acyl-thioester, 50 mM HEPES, pH 7.9, 25° C., 10 hours; HPLC 238 nm
T1 construct: made in house; host or cells: E. coli BL21(DE3)/pAW31
T1 sequence (Q9Y7D1 whole entry): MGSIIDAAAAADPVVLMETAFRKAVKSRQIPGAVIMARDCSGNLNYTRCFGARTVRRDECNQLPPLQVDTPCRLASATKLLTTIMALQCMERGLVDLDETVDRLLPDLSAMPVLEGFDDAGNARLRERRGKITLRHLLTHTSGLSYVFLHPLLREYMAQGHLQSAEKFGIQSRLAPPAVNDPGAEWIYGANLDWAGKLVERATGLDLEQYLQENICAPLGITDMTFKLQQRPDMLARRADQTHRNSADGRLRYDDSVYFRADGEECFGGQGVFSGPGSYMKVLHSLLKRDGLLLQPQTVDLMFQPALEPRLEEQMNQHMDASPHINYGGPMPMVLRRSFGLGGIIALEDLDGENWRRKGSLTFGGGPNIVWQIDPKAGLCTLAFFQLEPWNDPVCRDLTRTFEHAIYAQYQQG
Description: Assays were performed with 1 mM monacolin J, 4 mM acyl-CoA and 10 uM LovD for 10 hours.

E. coli YT2 = assay: Whole-cell biocatalysis activity of LovD G0 and directed-evolution mutants (SVA synthesis); conditions: 25° C.
Description: Wild type LovD and all mutants were cultured in parallel for comparison. A single colony of the freshly transformed YT2 competent cells was used to inoculate a 5 mL LB culture supplemented with 35 mg/L kanamycin. Following overnight growth at 37° C., 100 μl of the culture was inoculated into 50 mL LB medium supplemented with 35 mg/L kanamycin. When OD600 reached 0.4˜0.6, 0.1 mM IPTG was added to the cultures and expression of all LovD variants was performed at 25° C. for 16 hr. To mimic the high density fermentation conditions, the cells were then concentrated 10-fold before addition of substrates. A 10 ml aliquot of each culture was collected by centrifugation (4° C., 2,000 g, 10 min). The cell pellet was gently resuspended in 1 ml of the medium supernatant, followed by addition of 70 μl of MJA (300 mM stock) to a final concentration of 15 mM. The concentrated culture was then divided into seven 200 μl aliquots and 1 μl of pure DMB-SMMP was added to each sample to a final concentration of 20 mM. The small cultures were then shaken at 300 rpm at 25° C. At each time point, a complete extraction of one culture aliquot was performed by adding 10 μl of 20% SDS for cells lysis, followed by extraction with 500 μl ethyl acetate containing 1% trifluoroacetic acid TFA. The organic phase was removed, evaporated, and redissolved in 500 μl acetonitrile for HPLC analysis. The whole-cell activity was determined by fitting the linear regions of the conversion time course plot.
Parent LovD G0 and all mutants were cultured in parallel for comparison. A single colony of the freshly transformed YT2 competent cells was used to inoculate a 5 mL LB culture supplemented with 35 mg/L kanamycin. Following overnight growth at 37° C., 100 μl of the culture was inoculated into 50 mL LB medium supplemented with 35 mg/L kanamycin. When OD600 reached 0.4˜0.6, 0.1 mM IPTG was added to the cultures and expression of all LovD variants was performed at 25° C. for 16 hr. To mimic the high density fermentation conditions, the cells were then concentrated 10-fold before addition of substrates. A 10 ml aliquot of each culture was collected by centrifugation (4° C., 2,000 g, 10 min). The cell pellet was gently resuspended in 1 ml of the medium supernatant, followed by addition of 70 μl of MJA (300 mM stock) to a final concentration of 15 mM. The concentrated culture was then divided into seven 200 μl aliquots and 1 μl of pure DMB-SMMP was added to each sample to a final concentration of 20 mM. The small cultures were then shaken at 300 rpm at 25° C. At each time point, a complete extraction of one culture aliquot was performed by adding 10 μl of 20% SDS for cells lysis, followed by extraction with 500 μl ethyl acetate containing 1% trifluoroacetic acid TFA. The organic phase was removed, evaporated, and redissolved in 500 μl acetonitrile for HPLC analysis. The whole-cell activity was determined by fitting the linear regions of the conversion time course plot.

[1] = Soluble LovD protein expression level (Ni-NTA purification, Bradford assay)
Description: Each mutant was transformed into E. coli YT2 strain and selected by Kanamycin (Kan). The transformant was grown in 500 ml LB-Kan media at 37° C. to OD600 0.4˜0.6, then 0.1 mM IPTG was added to induce protein expression at 20° C. for 16 hours. Cells were collected by centrifugation, resuspended in 30 ml Buffer A (50 mM Tris-HCl, pH 8.0, 2 mM 2 mM EDTA), and lysed by sonication. Cell debris and insoluble proteins were removed by centrifugation (16,000 g, 4° C., 1 h). To the cleared lysate, 2 ml of Ni-NTA resin (Qiagen) was added. Each mutant was purified using a step gradient of buffer A with increasing concentration of imidazole. Pure (>95%) LovD proteins were eluted in buffer A containing 250 mM imidazole, and then buffer exchanged into buffer A without imidazole. Glycerol was added to a final concentration of 10%, the proteins were aliquoted, and flash frozen.
All nine mutants and the wild type LovD proteins were purified at the same time and under the same conditions. The proteins were purified from 50 ml LB culture. LovD was eluted in the last fraction which contains 250 mM imidazole. The concentration of the last fraction was determined by Bradford Assay using BSA as the standard.
Each expression plasmid encoding LovD mutant was transformed into E. coli BL21(DE3). The transformant was cultured in 50 mL LB medium containing 35 mg/L Kan at 37° C. to optical density (OD600) value of 0.4˜0.6. Protein expression was induced with 0.1 mM IPTG and the subsequent expression was performed at 25° C. for 16 h. Cells were collected by centrifugation (2,000 g, 4° C., 15 min), resuspended in 7 mL Buffer A (50 mM Tris-HCl, pH 8.0, 2 mM DTT, 2 mM EDTA), and lysed by sonication. Cell debris and insoluble proteins were removed by centrifugation (20,000 g, 4° C., 1 h). To the cleared cell lysate, 0.5 mL of Ni-NTA resin (Qiagen, Valencia, Calif.) was added to each sample. […] The protein concentrations were qualitatively assessed by SDS-PAGE and quantitatively determined by the Bradford protein assay using bovine serum albumin (BSA) as the standard.

MJ acid and DMB-S-MMP = assay: Kinetic assay of LovD wild type and mutants towards MJ acid and DMB-S-MMP; type: biochemical
Description: Dimethyl sulfoxide (DMSO) was added to a final concentration of 10% to facilitate the solubilization of DMB-S-MMP. To compare the turnover rate of all mutants and the wild type protein, the MJ acid concentration was set at 1 mM and the DMB-S-MMP was set at 2 mM, the protein concentration was fixed at 10 uM, after the reaction was performed at room temperature for 2 hours, the reaction was quenched by adding EA/2% TFA. The organic phase was dried and redissolved in ACN for HPLC analysis.
The concentration of DMB-S-MMP was fixed at 2 mM and MJ acid concentration was varied from 0.25 mM to 2.0 mM. […] For the rest LovD mutant proteins, we only checked the conversion of one time point.
To obtain KM values for MJA and kcat, the DMB-SMMP concentration was fixed at 2 mM, while the concentration of MJA was varied from 0.25 to 5 mM. To obtain KM values for DMB-SMMP and kcat, the MJA concentration was fixed at 2 mM, while the concentration of DMB-SMMP was varied from 0.5 to 5 mM. Dimethyl sulfoxide (DMSO) was added to a final concentration of 10% to facilitate the solubilization of DMB-SMMP. At different time points of the kinetic assay, an aliquot of the reaction mixture was removed, quenched with 1% TFA and extracted with EA containing 1% acetic acid. The organic phase was separated, dried, resolubilized by acetonitrile (ACN) and analyzed by a Beckman Gold HPLC using a reverse phase C18 column (Alltech Apollo 5μ, 150 mm×4.6 mm) and a linear gradient: 60% ACN in water (0.1% trifluoroacetic acid (TFA)) to 95% ACN in water (0.1% TFA) for 10 min, 1 mL/min. Conversion of MJA to SVA was measured by integration of the peaks at 238 nm.

Row | Molecule | quantity needed to inhibit the growth of N. crassa (in words) (Neurospora crassa) | Conversion (percent monacolin J converted to the corresponding lovastatin analog) (LovD) | further results
1 | C[C@H]1C=C2C=C[C@H](C)[C@H](CC[C@@H](O)C[C@@H](O)CC(=O)O)[C@H]2[C@@H](O)C1 [MJA, monacolin J acid] | hundred milligram quantities | – | –
2 | COC(=O)CSC(=O)c1ccccc1 | – | 70%, 7.6 | –
3 | CCC(C)(C)C(=O)SCC(=O)OC [drawing 22] | – | 17%, 8.5 | –
4 | CCC(C)(C)C(=O)O[C@H]1C[C@@H](C)C=C2C=C[C@H](C)[C@H](CC[C@@H](O)C[C@@H](O)CC(=O)O)[C@H]21 [SVA, simvastatin acid] | sub-microgram quantities | – | –
5 | CCCC(=O)SCC(=O)OC | – | 92%, 6.8 | –
6 | B1 | – | – | improvement in whole-cell activity compared to wild type enzyme (E. coli YT2): 11 fold; improvement of the soluble expression level compared to wild type enzyme [1]: 4 fold; improvement of the kcat/Km value compared to wild type enzyme (MJ acid and DMB-S-MMP): 3.45 fold
